Consider 41 compounds from patent US20210038559A1, “CANNABINOIDS AND DERIVATIVES FOR PROMOTING IMMUNOGENICITY OF TUMOR AND INFECTED CELLS” (priority 2018, published 2021).

This assay relates to MHC-I expression by COLO 205 cells. As to the kind of experiment: cells. It counts as cell-based, human. As to conditions: for fold induction at 35 µM: Homo sapiens, COLO 205, 48 h, read-out: Induction Fold. The method, then: A panel of synthetic cannabinoids (Cayman Chemical, #9002891) was tested for MHC class I-inducing capability in COLO 205 cells as described above. COLO 205 cells were treated with the compounds at a concentration of 35 μM and evaluated for cell surface MHC class I expression after 48 hours. Cells were harvested, stained with MHC-I mAb W6/32 (Thermo Fisher). MHC-I expression was determined by flow cytometry.

Where [1] appears, read: MHC-I expression, COLO 205 cells, compounds at 35 μM, 48 hours, flow cytometry (W6/32).

Like-named read-outs stand apart in the source and are kept apart here.

`O=C(c1nn(CCCCCF)c2ccccc12)N1CCCC1` [Example 230, (1-(5-fluoropentyl)-1H-indazol-3-yl)(pyrrolidin-1-yl)methanone]: the fold induction at 35 µM under setting [1] came to 1.72.

In the case of `CC1(C)C(C(=O)c2cn(CCCCCCl)c3ccccc23)C1(C)C` [Example 138, (1-(5-chloropentyl)-1H-indol-3-yl)(2,2,3,3-tetramethylcyclopropyl)methanone], the fold induction at 35 µM under setting [1] was found to be 2.21.

Regarding `COc1cccc2c(C(=O)N[C@@H]3C(C)(C)[C@@H]4CC[C@@]3(C)C4)cn(CCN3CCOCC3)c12` [Example 43, 7-methoxy-1-[2-(4-morpholinyl)ethyl]-N-[(1S,2 S,4R)-1,3,3-trimethylbicyclo[2.2.1]hept-2-yl]-1H-indole-3-carboxamide], the fold induction at 35 µM under setting [1] turned out to be 3.06.

As for `CCCCCCn1cccc1C(=O)c1cccc2ccccc12` [Example 202, (1-hexyl-1H-pyrrol-2-yl)-1-naphthalenyl-methanone], the “Induction Fold” value is recorded as 1.87 Fold.

As to `CCCCCn1cc(C(=O)Cc2ccccc2Br)c2ccccc21` [Example 120, 2-(2-bromophenyl)-1-(1-pentyl-1H-indol-3-yl)-ethanone], the fold induction at 35 µM under setting [1] worked out at 2.32.

Regarding `Cc1c(C(=O)c2ccccc2)c(N)c(-c2ccccc2)n1Cc1ccc(Cl)cc1` [Example 27, [4-amino-1-[(4-chlorophenyl)methyl]-2-methyl-5-phenyl-1H-pyrrol-3-yl]phenyl-methanone], the fold induction at 35 µM under setting [1] came out at 3.43.

`COc1ccc2c(c1)c(CC(=O)N1CCOCC1)c(C)n2C(=O)c1ccc(Cl)cc1` [Example 121, 2-[1-(4-chlorobenzoyl)-5-methoxy-2-methyl-1H-indol-3-yl]-1-(4-morpholinyl)-ethanone]: the fold induction at 35 µM under setting [1] was 2.32.

Take `CCCCCn1nc(C(=O)N[C@H](C(N)=O)C(C)C)c2ccccc21` [Example 100, (S)-N-(1-amino-3-methyl-1-oxobutan-2-yl)-1-pentyl-1H-indazole-3-carboxamide]: the fold induction at 35 µM under setting [1] worked out at 2.43.

Consider `CC(F)CCCn1cc(C(=O)Nc2cccc3ccccc23)c2ccccc21` (centres unmarked) [Example 339, 1-(4-fluoropentyl)-N-(naphthalen-1-yl)-1H-indole-3-carboxamide], for which the fold induction at 35 µM under setting [1] is 1.19.

Regarding `CCCCCn1cc(C(=O)Cc2cccc(C)c2)c2ccccc21` [Example 165, 1-(1-pentyl-1H-indol-3-yl)-2-(m-tolyl)ethanone], under setting [1], the fold induction at 35 µM stood at 2.02.

`CC(C)(O)CCn1c(=O)n(C(=O)N[C@H](C(N)=O)C(C)(C)C)c2ccccc21` [Example 345, N-[(1S)-1-(aminocarbonyl)-2,2-dimethylpropyl]-2,3-dihydro-3-(3-hydroxy-3-methylbutyl)-2-oxo-1H-benzimidazole-1-carboxamide]: the fold induction at 35 µM under setting [1] was found to be 1.13.

With `Cc1c(C(=O)C2C(C)(C)C2(C)C)c2ccccc2n1CCCCCF` [Example 126, (1-(5-fluoropentyl)-2-methyl-1H-indol-3-yl)(2,2,3,3-tetramethylcyclopropyl)methanone], the fold induction at 35 µM under setting [1] was found to be 2.29.

Turning to “[1-(5-fluoropentyl)-6-nitro-1H-indol-3-yl]-1-naphthalenyl-methanone [Example 280]”, the “Induction Fold” value is listed as 1.49 Fold.

Regarding `CCCCCn1cc(C(=O)c2cc(C)cc3ccccc23)c2ccccc21` [Example 219, (3-methylnaphthalen-1-y1)(1-pentyl-1H-indol-3-yl)methanone], the “Induction Fold” value is 1.78 Fold.

As to `CCCc1ccc(C(=O)c2cn(CCC)c3ccccc23)c2ccccc12` [Example 78, (1-propyl-1H-indol-3-yl)(4-propyl-1-naphthalenyl)-methanone], under setting [1], the fold induction at 35 µM was found to be 2.58.

Regarding `CN1CCCCC1Cn1cc(C(=O)c2cc([N+](=O)[O-])ccc2I)c2ccccc21` (centres unmarked) [Example 7, (2-iodo-5-nitrophenyl)-(1-(1-methylpiperidin-2-ylmethyl)-1H-indol-3-yl)methanone], the fold induction at 35 µM under setting [1] turned out to be 5.59.

For `CCCCCn1cc(C(=O)c2cc(OC)cc3ccccc23)c2ccccc21` [Example 234, (3-methoxynaphthalen-1-yl)(1-pentyl-1H-indol-3-yl)methanone], under setting [1], the fold induction at 35 µM came out at 1.71.

Regarding `CC1(C)C(C(=O)c2cn(CCCC(F)(F)F)c3ccccc23)C1(C)C` [Example 110, (2,2,3,3-tetramethylcyclopropyl)[1-(4,4,4-trifluorobutyl)-1H-indol-3-yl]-methanone], the fold induction at 35 µM under setting [1] was found to be 2.37.

Consider `CCCCCn1cc(C(=O)c2ccc(CCC)c3ccccc23)c2ccccc21` [Example 164, (1-pentyl-1H-indol-3-yl)(4-propyl-1-naphthalenyl)-methanone], for which, under setting [1], the fold induction at 35 µM is 2.03.

For `COC(=O)[C@@H](NC(=O)c1cn(Cc2ccc(F)cc2)c2ccccc12)C(C)(C)C` [Example 269, N-[[1-[(4-fluorophenyl)methyl]-1H-indol-3-yl]carbonyl]-3-methyl-1-valine, methyl ester], the “Induction Fold” value under setting [1] was 1.54 Fold.

Consider `CCCCCc1cc(O)cc(OCCCCCCCCCCC(=O)NC2CC2)c1` [Example 331, N-cyclopropyl-11-(3-hydroxy-5-pentylphenoxy)-undecanamide], for which the fold induction at 35 µM under setting [1] was determined as 1.22.

With `CCCCCn1cc(C(=O)Cc2ccccc2Cl)c2ccccc21` [Example 190, 2-(2-chlorophenyl)-1-(1-pentyl-1H-indol-3-yl)-ethanone], the fold induction at 35 µM under setting [1] was found to be 1.89.

For the compound `CCCCCn1cc(C(=O)c2cccc3c(Cl)cccc23)c2ccccc21` [Example 238, (5-chloronaphthalen-1-yl)(1-pentyl-1H-indol-3-yl)methanone], under setting [1], the fold induction at 35 µM turned out to be 1.7.

For the compound `C=CCCCn1cc(C(=O)C2C(C)(C)C2(C)C)c2ccccc21` [Example 148, (1-(pent-4-en-1-yl)-1H-indol-3-yl)(2,2,3,3-tetramethylcyclopropyl)methanone], the fold induction at 35 µM under setting [1] worked out at 2.14.

As to `CCC(C)Cn1cc(C(=O)c2cccc3ccccc23)c2ccccc21` (centres unmarked) [Example 58, N-(2-methylbutyl)-3-(1-naphthoyl)-indole], under setting [1], the fold induction at 35 µM is 2.86.

On to `CCCCCn1c(C)c(C(=O)c2ccc(CC)c3ccccc23)c2ccccc21` [Example 244, (4-ethyl-1-naphthalenyl)(2-methyl-1-pentyl-1H-indol-3-yl)-methanone], for which the fold induction at 35 µM under setting [1] turned out to be 1.66.

Consider `O=C(Oc1cnc2ccccc2c1)c1cn(CC2CCCCC2)c2ccccc12` [Example 261, Quinolin-3-yl 1-(cyclohexylmethyl)-1H-indole-3-carboxylate], for which the fold induction at 35 µM under setting [1] stood at 1.56.

For the compound `CCCCCn1nc(C(=O)N[C@@H](CCCC)C(N)=O)c2ccccc21` (single isomer, unassigned) [Example 11], under setting [1], the fold induction at 35 µM was 4.56.

Regarding `CC(C)(NC(=O)c1cn(CCCCCF)c2ncccc12)c1ccccc1` [Example 313, 1-(5-fluoropentyl)-N-(2-phenylpropan-2-yl)-1H-pyrrolo[2,3-b] pyridine-3-carboxamide], the fold induction at 35 µM under setting [1] was 1.33.

`COC(=O)[C@@H](NC(=O)c1cn(CCCCCF)c2ccccc12)C(C)C` [Example 354, N-[[1-(5-fluoropentyl)-1H-indol-3-yl]carbonyl]-L-valine, methyl ester]: the fold induction at 35 µM under setting [1] was 1.05.

With `CCCC(Cl)Cn1cc(C(=O)C2C(C)(C)C2(C)C)c2ccccc21` (centres unmarked) [Example 157, (1-(2-chloropentyl)-1H-indol-3-yl)(2,2,3,3-tetramethylcyclopropyl)methanone], under setting [1], the fold induction at 35 µM was determined as 2.07.

For the compound `CCCCCn1cc(C(=O)c2cccc(OC)c2)c2ccccc21` [Example 56, (3-methoxyphenyl)(1-pentyl-1H-indol-3-yl)methanone], the fold induction at 35 µM under setting [1] was 2.9.

Consider `O=C(c1cccc2ccccc12)c1nn(CCCCCCl)c2ccccc12` [Example 142, (1-(5-chloropentyl)-1H-indazol-3-yl)(naphthalen-1-yl)methanone], for which the fold induction at 35 µM under setting [1] stood at 2.19.

`O=C(Nc1cccc2ccccc12)c1cn(CCCCCF)c2ccccc12` [Example 286, 1-(5-fluoropentyl)-N-(naphthalen-1-yl)-1H-indole-3-carboxamide]: under setting [1], the fold induction at 35 µM stood at 1.45.

As to `CCCCCCCC(C)(C)c1ccc([C@@H]2CCC[C@H](O)C2)c(O)c1` (relative stereo) [Example 241, rel-5-(1,1-dimethyloctyl)-2-[(1R,3S)-3-hydroxycyclohexyl]-phenol], under setting [1], the fold induction at 35 µM is 1.68.

As for `CCCCCn1cc(C(=O)Cc2ccccc2C)c2ccccc21` [Example 101, 2-(2-methylphenyl)-1-(1-pentyl-1H-indol-3-yl)-ethanone], under setting [1], the fold induction at 35 µM was found to be 2.42.

For `CCCCCN1C(=O)C(=NNC(=O)c2ccccc2)c2ccc(OC)cc21` [Example 266, 2Z-(1,2-dihydro-6-methoxy-2-oxo-1-pentyl-3H-indol-3-ylidene)hydrazide benzoic acid], under setting [1], the “Induction Fold” value was 1.55 Fold.

As for `CCCCCn1cc(C(=O)N[C@@H](Cc2ccccc2)C(N)=O)c2ccccc21` [Example 246, (S)-N-(1-amino-1-oxo-3-phenylpropan-2-yl)-1-pentyl-1H-indole-3-carboxamide], the fold induction at 35 µM under setting [1] turned out to be 1.65.

Turning to `CCCCn1cc(C(=O)c2ccc(C)c3ccccc23)c2ccccc21` [Example 69, (1-butyl-1H-indol-3-yl)(4-methylnaphthalen-1-yl)methanone], the fold induction at 35 µM under setting [1] was 2.71.

As to `O=C(Nc1cccc(-c2ccccc2)c1)OC1CCCCC1` [Example 226, N-[1,1′-biphenyl]-3-yl-carbamic acid, cyclohexyl ester], the fold induction at 35 µM under setting [1] was 1.74.

On to `O=C(NC12CC3CC(CC(C3)C1)C2)c1nn(CC2CCOCC2)c2ccccc12` (single isomer, unassigned) [Example 361, 1-[(tetrahydro-2H-pyran-4-yl)methyl]-N-tricyclo[3.3.1.1^3,7]dec-1-yl-1H-indazole-3-carboxamide], for which the fold induction at 35 µM under setting [1] came out at 0.95.
